According to US20140329854A1, “NOVEL HETEROCYCLIC COMPOUNDS USEFUL IN SIRTUIN BINDING AND MODULATION” (SMB Innovation, priority 2011, published 2014):
≈ marks a conversion by molar mass, not a printed value.

Tests used:
SIRT1 = molecular target: T1, SIRT1 (Homo sapiens, UniProt Q96EB6); assay: CISBIO HTRF SIRT1 assay of SIRT1 peptide deacetylation, modified by excluding NAD+; format: biochemical; details: average AC50 values, n = 6; read-out: AC50
T1 construct: purchased Cisbio Bioassays
T1 sequence (Q96EB6 1-747): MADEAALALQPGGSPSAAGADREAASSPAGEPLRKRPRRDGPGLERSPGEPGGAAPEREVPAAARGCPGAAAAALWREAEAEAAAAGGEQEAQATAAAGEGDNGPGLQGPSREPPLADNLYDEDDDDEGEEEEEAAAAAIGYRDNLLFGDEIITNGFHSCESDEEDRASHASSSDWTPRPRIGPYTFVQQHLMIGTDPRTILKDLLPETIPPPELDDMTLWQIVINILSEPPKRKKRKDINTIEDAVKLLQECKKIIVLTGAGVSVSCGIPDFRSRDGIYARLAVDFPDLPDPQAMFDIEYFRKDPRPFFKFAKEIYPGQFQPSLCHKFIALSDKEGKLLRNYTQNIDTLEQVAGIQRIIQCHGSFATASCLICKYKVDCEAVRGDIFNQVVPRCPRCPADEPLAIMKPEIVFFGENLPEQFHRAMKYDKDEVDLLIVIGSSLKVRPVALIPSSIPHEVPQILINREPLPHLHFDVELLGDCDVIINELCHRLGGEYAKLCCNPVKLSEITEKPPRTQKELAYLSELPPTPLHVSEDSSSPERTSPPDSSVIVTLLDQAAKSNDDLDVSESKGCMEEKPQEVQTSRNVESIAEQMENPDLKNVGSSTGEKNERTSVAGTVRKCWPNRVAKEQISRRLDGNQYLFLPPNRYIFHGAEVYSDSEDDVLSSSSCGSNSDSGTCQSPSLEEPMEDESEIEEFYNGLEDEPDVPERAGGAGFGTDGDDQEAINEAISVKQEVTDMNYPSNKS
Procedure: Generally, the CISBIO HTRF® fluorescence enzyme titration assay (Cisbio Bioassays, Cisbio, 135 South Road, Bedford, Mass. 01730, USA) has provided information on inhibition and/or activation of SIRT1 deacetylation of a substrate peptide d2 containing a single acetylated lysine residue and a fluorescence probe/quencher. IC50 and AC50 values have been obtained. The assay was performed in microtiter wells and involved an enzymatic step, wherein 2 μL of the substrate peptide (6 nM) is incubated with 2 μL of SIRT1 enzyme (2.5 ng) and 2 μL of compound solution in DMSO and water. Reaction with anti-acetyl cryptate produces a FRET signal giving maximum signal when no SIRT1 reaction can be detected. The detection step involves quantification of the deacetylation process using an anti-acetyl MAb labeled with Eu^3+ cryptate. The assay was modified by excluding the NAD+ cofactor and using nicotinamide as inhibition control and the compound SRT1720 as activation control. SRT 1720 is described as a SIRT1 activating compound in Pillarisetti, S. (2008).
Protocol for inhibition/activation assay:
After adding all enzymatic step ingredients the mixture is incubated at room temperature at 30 to 60 min. Then the detection reactant is added and incubated at room temperature for 5 hours and on to produce a signal. The fluorescence readout is given as percentage of signal produced with no enzyme reaction.
The cryptate is excited at 337 nm and the fluorescence is measured at 590 nm (cryptate emission wavelength) and 665 nm (d2 emission wavelength). A ratio is calculated (665/590 nm) for each well.
The figures show percentage fluorescence as a function of Log C (log of compound concentration in μM).

[1] = Measured partition coefficients (MlogD7.4, logP11); format: physicochemical
Procedure: Physical properties tPSA and ClogP (calculated lipophilicity octanol/water) were calculated using ChemDraw. Additionally, M log D7.4 (measured partition coefficient at pH 7.4) and log P11 (measured partition coefficient at pH 11) were measured, and all data are shown in Table 7.

[2] = Kinetic aqueous solubility; format: physicochemical; details: phosphate buffer, pH 7.4, aqueous buffer, kinetic from dmso stock; read-out: Measured kinetic solubility
[3] = Metabolic stability in rat hepatocytes; format: in vitro ADME; details: rat hepatocytes, hepatic intrinsic clearance
Procedure: (§1) Stability of the six compounds in the presence of a drug metabolizing system such as human and rat hepatocytes was measured. Data were reported from the CRO in the format of hepatic intrinsic clearance (CLint) in mL/min/kg. These CLint data were converted using the well-stirred equation
(§2) to a whole body clearance (CLh, hepatic clearance), which is more directly physiologically interpreted (Qh, hepatic blood flow rate, mL/min/kg).

rat hepatocytes = assay: Metabolic stability in rat hepatocytes; format: in vitro ADME; details: rat Qh = 55 mL/min/kg
Procedure: as §1, §2

[4] = Metabolic stability in human hepatocytes; format: in vitro ADME; details: human hepatocytes, hepatic intrinsic clearance; read-out: hu CLint
Procedure: as §1, §2

human hepatocytes = assay: Metabolic stability in human hepatocytes; format: in vitro ADME; details: human Qh = 21 mL/min/kg
Procedure: as §1, §2

[5] = tested on: human and rat hepatocytes; assay: Stability in cryopreserved hepatocytes (FIG. 7), verbal summary; format: in vitro ADME; details: 90 minutes
Procedure: as §1

MDCK-MDR1 cells = tested on: MDCK-MDR1 cells
Text: MDR1 is the nomenclature for the major efflux transporter P-glycoprotein (P-gp), which is expressed at important anatomical barriers such as blood-brain, small intestine, and tumor cells. The MDCK-MDR model is a polarized cell model over expressing P-gp (i.e. P-gp is expressed on the Apical, or gut lumen, side of the cell) that is capable of actively effluxing small molecule substrates in the B to A direction. […] The compounds were run bidirectionally (Compound added to apical side and flux measured of compound appearing on the basolateral, or blood, side; compound added on basolateral side and flux of compound to apical side measured).

[6] = Solubility in DMSO stock solution; details: solubility in DMSO before further dilution with water to 1% DMSO
[7] = tested on: CYP1A2, CYP2C9, CYP2C19, CYP2D6, CYP3A4; assay: CYP inhibition in human liver microsomes
[8] = hepatic clearance from CLint by well-stirred equation

NC(=O)c1ccc(C(=O)Nc2ccc(O)cc2O)nc1 [Compound 3, 2-N(2,4-dihydroxyphenyl)pyridine-2,5-dicarboxamide]
AC50 (SIRT1): 10 µM | logD ([1]; measured partition coefficient at pH 7.4): 0.8 | logP ([1]; measured partition coefficient at pH 11, read-out: MlogP11): 1 | solubility kinetic [2]: 14 to 55 µg/mL (≈ 51.2 to 201 µM) | CLint scaled [3]: 53 mL/min/kg | % Qh (rat) (rat hepatocytes; CLh as % of hepatic blood flow): 49.1% | rat CLh (rat hepatocytes; [8]): 27.0 mL/min/kg | CLint scaled [4]: 83 mL/min/kg | % Qh (human) (human hepatocytes; CLh as % of hepatic blood flow): 79.8% | hu CLh (human hepatocytes; [8]): 16.8 mL/min/kg | Clearance in hepatocytes (in words) [5]: relatively low clearance | Stability in hepatocytes (in words) [5]: good stability | Cell permeability (in words) (MDCK-MDR1 cells): moderate cell permeability | P-gp mediated efflux (in words) (MDCK-MDR1 cells): no P-gp mediated efflux | Concentration of compound in DMSO stock solution [6]: 20000 µM | IC50 [7]: > 5 µM
